According to ChEMBL document CHEMBL1201862, “PubChem BioAssay data set” (2004):
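Tested at 5 concentrations; 48 h exposure; 96-well plates; endpoints linearly interpolated, else capped at highest concentration. The concentration for 50% growth inhibition is given as GI50.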 Activity calls are given as the source filed them. Rule as the data show it: active = GI50 up to about 1.1 µM and inactive = higher.

Key:
Assay in all cases: NCI-60 cell line screen, 48 h
[1] = system: SW-620
[2] = system: M14
[3] = system: NCI-H226
[4] = system: MCF7
[5] = system: NCI-H460
[6] = system: KM12
[7] = system: T47D
[8] = system: HCC 2998
[9] = system: SF-268
[10] = system: Malme-3M
[11] = system: RXF 393
[12] = system: MDA-MB-231
[13] = system: MDA-MB-435
[14] = system: SK-MEL-28
[15] = system: SK-MEL-5
[16] = system: SNB-19
[17] = system: SK-MEL-2
[18] = system: NCI-H522
[19] = system: SF-295
[20] = system: A498
[21] = system: ACHN
[22] = system: LOX IMVI
[23] = system: HL-60
[24] = system: NCI/ADR-RES
[25] = system: UO-31
[26] = system: SK-OV-3
[27] = system: OVCAR-3
[28] = system: CAKI-1
[29] = system: OVCAR-5
[30] = system: A549
[31] = system: HOP-62
[32] = system: PC-3
[33] = system: RPMI-8226
[34] = system: OVCAR-4
[35] = system: MDA-N
[36] = system: K562
[37] = system: HT-29
[38] = system: SN12C
[39] = system: BT-549
[40] = system: SF-539
[41] = system: SNB-75
[42] = system: MOLT-4
[43] = system: Hs-578T
[44] = system: UACC-62
[45] = system: NCI-H23
[46] = system: U-251
[47] = system: DU-145
[48] = system: IGROV-1
[49] = system: EKVX
[50] = system: HCT-15
[51] = system: HOP-92
[52] = system: HCT-116
[53] = system: TK-10
[54] = system: UACC-257
[55] = system: SR
[56] = system: 786-0
[57] = system: COLO 205
[58] = system: CCRF-CEM
[59] = system: OVCAR-8

CCOC(=O)C(SCCO)C(C(=O)OCC)n1ccc(=O)[nH]c1=O (stereo not drawn)
GI50 [1]: 12.9 µM (inactive)
GI50 [2]: 27.3 µM (inactive)
GI50 [3]: > 35.6 µM (inactive)
GI50 [4]: 23.1 µM (inactive)
GI50 [5]: 57.1 µM (inactive)
GI50 [6]: 37 µM (inactive)
GI50 [7]: 38.1 µM (inactive)
GI50 [8]: > 71.8 µM (inactive)
GI50 [9]: 35.4 µM (inactive)
GI50 [10]: 12.5 µM (inactive)
GI50 [11]: 24.2 µM (inactive)
GI50 [12]: 35.8 µM (inactive)
GI50 [13]: 22.4 µM (inactive)
GI50 [14]: 28.8 µM (inactive)
GI50 [15]: 63.5 µM (inactive)
GI50 [16]: > 100 µM (inactive)
GI50 [17]: 33.7 µM (inactive)
GI50 [18]: 3.77 µM (inactive)
GI50 [19]: > 100 µM (inactive)
GI50 [20]: 75 µM (inactive)
GI50 [21]: 21.2 µM (inactive)
GI50 [22]: 14.8 µM (inactive)
GI50 [23]: 3.16 µM (inactive)
GI50 [24]: 25.4 µM (inactive)
GI50 [25]: > 92 µM (inactive)
GI50 [26]: > 100 µM (inactive)
GI50 [27]: 23.3 µM (inactive)
GI50 [28]: 7.83 µM (inactive)
GI50 [29]: 22.1 µM (inactive)
GI50 [30]: > 100 µM (inactive)
GI50 [31]: > 60.7 µM (inactive)
GI50 [32]: > 64 µM (inactive)
GI50 [33]: 17.5 µM (inactive)
GI50 [34]: > 49.3 µM (inactive)
GI50 [35]: 34.8 µM (inactive)
GI50 [36]: 5.55 µM (inactive)
GI50 [37]: 23.5 µM (inactive)
GI50 [38]: 22.1 µM (inactive)
GI50 [39]: > 58.7 µM (inactive)
GI50 [40]: 31.5 µM (inactive)
GI50 [41]: 25.4 µM (inactive)
GI50 [42]: 3.01 µM (inactive)
GI50 [43]: 36.6 µM (inactive)
GI50 [44]: 20.4 µM (inactive)
GI50 [45]: 34.3 µM (inactive)
GI50 [46]: 27.6 µM (inactive)
GI50 [47]: > 100 µM (inactive)
GI50 [48]: 31.9 µM (inactive)
GI50 [49]: 75.9 µM (inactive)
GI50 [50]: 17.5 µM
GI50 [51]: 13.8 µM (inactive)
GI50 [52]: 16.3 µM (inactive)
GI50 [53]: > 56.8 µM (inactive)
GI50 [54]: > 63.7 µM (inactive)
GI50 [55]: 11.9 µM (inactive)
GI50 [56]: 16.6 µM (inactive)
GI50 [57]: 17.6 µM (inactive)
GI50 [58]: 1.98 µM (inactive)
GI50 [59]: 25.1 µM (inactive)

C=C(Cl)C(Br)(CCl)CCC(Br)C(C)(C)Cl (stereo not drawn)
GI50 [1]: 1.71 µM (inactive)
GI50 [2]: 2.91 µM (inactive)
GI50 [3]: 5.32 µM (inactive)
GI50 [4]: 3.38 µM (inactive)
GI50 [5]: 6.81 µM (inactive)
GI50 [6]: 6.87 µM (inactive)
GI50 [7]: 1.15 µM (inactive)
GI50 [8]: 14.1 µM (inactive)
GI50 [9]: 2.93 µM (inactive)
GI50 [10]: 2.83 µM (inactive)
GI50 [11]: 2.72 µM (inactive)
GI50 [12]: 1.64 µM (inactive)
GI50 [13]: 3.57 µM (inactive)
GI50 [14]: 4.68 µM (inactive)
GI50 [15]: 2.47 µM (inactive)
GI50 [16]: 3.48 µM (inactive)
GI50 [17]: 6.24 µM (inactive)
GI50 [18]: 3.42 µM (inactive)
GI50 [19]: 5.77 µM (inactive)
GI50 [20]: 17.7 µM (inactive)
GI50 [21]: 7.96 µM (inactive)
GI50 [22]: 1.25 µM (inactive)
GI50 [23]: 2.43 µM (inactive)
GI50 [24]: 3.17 µM (inactive)
GI50 [25]: 5.61 µM (inactive)
GI50 [26]: 14 µM (inactive)
GI50 [27]: 6.17 µM (inactive)
GI50 [28]: 4.95 µM (inactive)
GI50 [29]: 7.21 µM (inactive)
GI50 [30]: 17.7 µM (inactive)
GI50 [31]: 2.76 µM (inactive)
GI50 [32]: 6.12 µM (inactive)
GI50 [33]: 2.06 µM (inactive)
GI50 [34]: 8.83 µM (inactive)
GI50 [35]: 3.49 µM (inactive)
GI50 [36]: 2.44 µM (inactive)
GI50 [37]: 2.02 µM (inactive)
GI50 [38]: 2.84 µM (inactive)
GI50 [39]: 2.52 µM (inactive)
GI50 [40]: 6.95 µM (inactive)
GI50 [41]: 3.6 µM (inactive)
GI50 [42]: 1.6 µM (inactive)
GI50 [43]: 3.66 µM (inactive)
GI50 [44]: 3.37 µM (inactive)
GI50 [45]: 3.75 µM (inactive)
GI50 [46]: 7.24 µM (inactive)
GI50 [47]: 13.7 µM (inactive)
GI50 [48]: 5.82 µM (inactive)
GI50 [49]: 5.58 µM (inactive)
GI50 [50]: 3.26 µM
GI50 [51]: 9.75 µM (inactive)
GI50 [52]: 1.72 µM (inactive)
GI50 [53]: 12.2 µM (inactive)
GI50 [54]: 2.67 µM (inactive)
GI50 [55]: 2.92 µM (inactive)
GI50 [56]: 1.95 µM (inactive)
GI50 [57]: 4.53 µM (inactive)
GI50 [58]: 0.92 µM (active)
GI50 [59]: 3.38 µM (inactive)
